Laboratory results from US20030162814A1, “N-substituted 1-amino-1,1-dialkylcarboxylic acid derivatives” (priority 2000, published 2003).

For `CC(=O)O.CC(C)(C)NS(=O)(=O)c1ccccc1-c1ccc(NC(=O)C(C)(C)Nc2cccc(C(=N)N)c2)cc1`, which melting point is on record?
The melting point was 153 °C.

Which melting point does the source give for `CC(C)(Nc1cccc(C(=N)N)c1)C(=O)Nc1ccc(-c2ccccc2S(N)(=O)=O)cc1.O=C(O)C(F)(F)F` here?
Its melting point is 197 °C.

For `CC(C)(C)NS(=O)(=O)c1ccccc1-c1ccc(NC(=O)C(C)(C)Nc2cccc(C#N)c2)cc1` [CB, N-(2′-tert-butylsulfamoyl-biphenyl-4-yl)-2-(3-cyanophenylamino)-2-methylpropionamide], which melting point is on record?
Its melting point is 190 to 193 °C.
